Measured values taken from publication PMC11679558, “Novel Peptidomimetic Cyclo-{E(I)-E(W)}Na (CP-88) with Hematopoietic Activity Sustained in Invasive and Oral Administration: Experimental and Preclinical Evaluation” (International Journal of Molecular Sciences, 2024).
Peptide text beside a SMILES is read from it.

What was measured:
mice (CBA/C57BL6) F1 = test: Acute toxicity of CP-88 in mice; assay type: in vivo; conditions: male and female mice, intraperitoneally once, 0.2 mL per animal; doses 500, 1000 and 10,000 μg/kg
Procedure: This study of acute and chronic toxicity of CP-88 was conducted under the requirements of regulatory documents that regulate this study and are part of a complex of preclinical studies on acute and chronic toxicity that are required for the registration of drugs. Fifty-six male and fifty-six female mice, line (CBA/C57BL6) F1, were used for this study.
To determine acute toxicity, peptide was administered to male and female mice (CBA/C57BL6) F1 (56 male and 56 female mice). The animals were obtained from the Scientific and Production Enterprise “Stolbovaya” Laboratory Animal Nursery, Moscow Region, at the age of 4 weeks. Upon receipt, an external examination of the animal’s condition was conducted.
The drug was administered in the form of aqueous solutions intraperitoneally in doses of 500, 1000, and 10,000 μg/kg in a volume of 0.2 mL per mouse, which exceeded the effective doses of the drug by 50 to 1000 times. Animals of the same batch, injected with distilled water in a volume of 0.2 mL per animal (control substance), were used as a biological control.

[1] = Interspecies extrapolation of the toxicological results to humans; conditions: interspecies extrapolation from the toxicological test results
Procedure: The toxicological test results conclude that in humans, considering interspecies extrapolation, CP-88 can be practically safe with a single and course administration in doses of up to 100 μg/kg. In the first phase of clinical trials, it is advisable to test the drug for tolerability, starting with a dose of 1 μg/kg. The dose can be increased to 10 μg/kg daily with no adverse reactions detected in the clinical results.

[2] = Pharmacokinetics of Stemokin in mice using 3H-Stemokin; assay type: in vivo; conditions: parenteral administration
Procedure: The additional goal of this study was to estimate Stemokin’s pharmacokinetics using 3H-Stemokin.
The main radioactivity was accumulated in the bone marrow. This exceptional tropism to bone marrow could explain its significant hemostimulating activity (Table 4 and Table 5, line 3 underlying the extraordinary tropism of Stemokin to Bone marrow tissue).
Pharmacokinetics of Stemokin With parenteral administration of the drug, a Cmax in the blood was achieved after 5 min […]. A Cmax was observed 30–40 min after administration in bone marrow, liver, kidneys, and lymph nodes. The drug’s T1/2 is 24 h and is eliminated from the body within 72 h. The pharmacokinetics of Stemokin was studied using ^3H-Stemokin, obtained by thermal activation of gaseous tritium. 3H-Stemokin was administered intramuscularly to BDF1 female mice, and 72 h after a single dose, the levels of ^3H-radioactivity were determined in animal organs and tissues. The main amount of radioactivity, ~80%, was excreted within 24 h after administration of ^3H-Stemokin and was less than 5% of the administered dose (Table 4 and Table 5).

[3] = cited from earlier work
From the text: Several cyclopeptides (A1–A5) indicated stimulatory hematopoietic activity sustained in invasive and oral administration.

CC[C@H](C)[C@H](NC(=O)CC[C@@H]1NC(=O)[C@H](CCC(=O)N[C@@H](Cc2c[nH]c3ccccc23)C(=O)O)NC1=O)C(=O)O [CP-88, Cyclo-[Glu(Ile)-Glu(Trp)]]
acute toxicity: doses with no toxic effects (mice (CBA/C57BL6) F1): up to 10,000 µg/kg
practically safe dose in humans with a single and course administration [1]: up to 100 μg/kg

CC[C@H](C)[C@H](N)C(=O)N[C@@H](CCC(=O)O)C(=O)N[C@@H](Cc1c[nH]c2ccccc12)C(=O)O [Stemokin, Ile-Glu-Trp] (H-Ile-Glu-Trp-OH)
T1/2 [2]: 24 h
time to Cmax in bone marrow, liver, kidneys, and lymph nodes [2]: 30 to 40 min
time within which the drug is eliminated from the body [2]: ≤ 72 h

c[DAlaDGlu(DTrp)] [B1]
immuno and hemosuppressive activity (in words) [3]: immuno and hemosuppressive activity

c[DLysDGlu(DTrp)] [B5]
immuno and hemosuppressive activity (in words) [3]: immuno and hemosuppressive activity

c[DPheDGlu(DTrp)] [B6]
immuno and hemosuppressive activity (in words) [3]: immuno and hemosuppressive activity

c[DTyrDGlu(DTrp)] [B9]
immuno and hemosuppressive activity (in words) [3]: immuno and hemosuppressive activity

cyclo[L-Lys(N-acetyl-Glucosamine-N-acetyl-muramyl)-L-Glu(L-Trp)] [E1]
adjuvant activity (in words) [3]: adjuvant activity

cyclo[Lys(Palmitoyl)-Glu(D-Trp)] [E3]
adjuvant activity (in words) [3]: adjuvant activity
